Laboratory results reported in US10196657B2, “Methods of producing 7-carbon chemicals via methyl-ester shielded carbon chain elongation” (INVISTA North America S.á r.l., priority 2012, dated 2019).

Experiments:
Format in all cases: biochemical
[1] = ω-transaminase activity assay, reverse direction (7-aminoheptanoate to pimelate semialdehyde); conditions: cell free extract, 10 mM 7-aminoheptanoate, 10 mM pyruvate, 25° C., 4 h; against empty vector control; FIG. 15
Procedure: (§1) A sequence encoding an N-terminal His-tag was added to the genes from Chromobacterium violaceum, Pseudomonas syringae, Rhodobacter sphaeroides, and Vibrio Fluvialis encoding the ω-transaminases of SEQ ID NOs: 8, 10, 11 and 13, respectively (see FIGS. 7F and 7G) such that N-terminal HIS tagged ω-transaminases could be produced. Each of the resulting modified genes was cloned into a pET21a expression vector under control of the T7 promoter and each expression vector was transformed into a BL21[DE3] E. coli host. The resulting recombinant E. coli strains were cultivated at 37° C. in a 250 mL shake flask culture containing 50 mL LB media and antibiotic selection pressure, with shaking at 230 rpm. Each culture was induced overnight at 16° C. using 1 mM IPTG.
(§2) The pellet from each induced shake flask culture was harvested via centrifugation. Each pellet was resuspended and lysed via sonication. The cell debris was separated from the supernatant via centrifugation and the cell free extract was used immediately in enzyme activity assays.
Enzyme activity assays in the reverse direction (i.e., 7-aminoheptanoate to pimelate semialdehyde) were performed in a buffer composed of a final concentration of 50 mM HEPES buffer (pH=7.5), 10 mM 7-aminoheptanoate, 10 mM pyruvate and 100 μM pyridoxyl 5′ phosphate. […] The formation of L-alanine from pyruvate was quantified via RP-HPLC.

[2] = ω-transaminase activity assay, forward direction (pimelate semialdehyde to 7-aminoheptanoate)
Procedure: as §1, §2
Enzyme activity in the forward direction (i.e., pimelate semialdehyde to 7-aminoheptanoate) was confirmed for the transaminases of SEQ ID NO 10, SEQ ID NO 11 and SEQ ID NO 13. […] The formation of pyruvate was quantified via RP-HPLC.

[3] = ω-transaminase activity assay, 7-aminoheptanol to 7-oxoheptanol
Procedure: A nucleotide sequence encoding an N-terminal His-tag was added to the Chromobacterium violaceum, Pseudomonas syringae and Rhodobacter sphaeroides genes encoding the ω-transaminases of SEQ ID NOs: 8, 10 and 11, respectively (see FIGS. 7F and 7G) such that N-terminal HIS tagged ω-transaminases could be produced. The modified genes were cloned into a pET21a expression vector under the T7 promoter. Each expression vector was transformed into a BL21[DE3] E. coli host. Each resulting recombinant E. coli strain were cultivated at 37° C. in a 250 mL shake flask culture containing 50 mL LB media and antibiotic selection pressure, with shaking at 230 rpm. Each culture was induced overnight at 16° C. using 1 mM IPTG.
as §2
Enzyme activity assays in the reverse direction (i.e., 7-aminoheptanol to 7-oxoheptanol) were performed in a buffer composed of a final concentration of 50 mM HEPES buffer (pH=7.5), 10 mM 7-aminoheptanol, 10 mM pyruvate, and 100 μM pyridoxyl 5′ phosphate. […] The formation of L-alanine was quantified via RP-HPLC.

In the case of “SEQ ID NO 11: Rhodobacter sphaeroides ω-transaminase, Genbank Accession No. ABA81135.1”, the “acceptance of 7-aminoheptanoate as substrate (formation of L-alanine from pyruvate, RP-HPLC)” value [1] is reported as “accepted 7-aminoheptanote as substrate”, the “acceptance of pimelate semialdehyde as substrate (formation of pyruvate from L-alanine, RP-HPLC)” value ([2]; cell free extract, 10 mM pimelate semialdehyde, 10 mM L-alanine, 25° C., 4 h, against empty vector control, FIG. 16) is reported as “accepted pimelate semialdehyde as substrate” and the “acceptance of pimelate semialdehyde as substrate, synthesizing 7-aminoheptanoate (conclusion from confirmed reversibility)” value ([2]; concluded from reversibility of the ω-transaminase activity) is reported as “accepted pimelate semialdehyde as substrate”. For the same substance, the “acceptance of 7-aminoheptanol as substrate (formation of L-alanine, RP-HPLC)” value ([3]; cell free extract, 10 mM 7-aminoheptanol, 10 mM pyruvate, 25° C., 4 h, against empty vector control, FIG. 19) was “accepted 7-aminoheptanol as substrate” and the “acceptance of 7-oxoheptanol as substrate, forming 7-aminoheptanol (concluded from reversibility)” value ([3]; concluded from reversibility of the ω-transaminase activity (Example 2)) was “accept 7-oxoheptanol as substrate”.
